Measurements from patent US9315531B2, “Titanocene-gold derivatives comprising thiolato ligands” (Research Foundation of the City University of New York, priority 2014, dated 2016).
pIC50: −log10 of the molar value.

Legend:
[1] = test system: AKT; assay: Protein kinase expression in Caki-1 whole cell lysates, AKT; assay type: cell-based, human; conditions: Caki-1, 5 μM, by 12 hours post-treatment
Procedure: (§1) Whole cell lysates of Caki-1 cells treated with compounds 2 or 6 were also evaluated for their effects on the expression levels of selected protein kinases, namely p90-RSK, AKT and MAPKAPK3. […] Because all three enzymes have been implicated in promoting cell migration and therefore are strong targets for anti-metastasis drugs, these findings predict that compound 2 would be effective in controlling metastatic potential of renal tumors.
(§2) Cell lysis and immunoblotting: Caki-1 cells were seeded into 10-cm dishes at a density of 2.2×10^6 and incubated for 24 hours. […]
(§3) The protein concentration was determined with BCA protein dye reagent (Pierce, Fisher Scientific Pittsburgh, Pa.). Samples were denatured with 5×SDS sample buffer (0.25% bromophenol blue, 0.5 M dithiothreitol (DTT), 50% glycerol 50% (v/v), 10% sodium dodecyl sulfate (SDS) followed by heating at 95° C. for 5 minutes. Proteins were separated by SDS-PAGE, transferred to a PVDF membrane (Millipore Corp.), and probed with MAPKAPK-3 antibody (Cell Signaling Technology, Danvers, Mass., USA), as well as β-actin antibody (Cell Signaling Technology, Danvers, Mass., USA). Immunoreactive bands of primary antibodies were detected using HRP goat anti-rabbit and secondary antibodies were detected with peroxidase-conjugated secondary antibody and detected by chemiluminescence (Pierce Biotechnology, Rockford, Ill.).

[2] = test system: thioredoxin reductase
Procedure: After 5, 12 or 24 hours of treatment incubation cells were washed three times in PBS, and lysed by douncing using scrapers and sheer force though syringe with a 34 gauge needle in assay buffer (Abeam Thioredoxin Reductase Assay kit, ab83463) added to 1 mM protease inhibitor cocktail (Abeam, ab65621). The lysates were centrifuged at 10,000×g for 15 minutes at 4° C. to isolate insoluble material. The total protein concentrations of soluble lysates were measured using the BCA Protein Assay (Life Technologies). The soluble lysates were incubated for 20 minutes in assay buffer with a proprietary thioredoxin reductase specific inhibitor before adding a specific substrate, DTNB (5, 5′-dithiobis(2-nitrobenzoic) acid), and measuring activity at 1 minute intervals for 30 minutes using the BioTek fluorescence microplate reader (BioTek U.S., Winooski, Vt.) set at =412 nm. Lysates were tested in duplicate. TrxR activity was calculated based on the linear amount of TNB produced per minute per mg of total protein and corrected for background activity from enzymes other than TrxR in the lysates.

[3] = Stability in solution (DMSO-d6, CDCl3, DMSO/PBS); assay type: physicochemical
Description: Both compound 2 and compound 3 were less acidic than titanocene dichloride and were soluble in DMSO/water, DMSO/PBS and DMSO/media (1:99) mixtures at micromolar concentrations. These compounds were unusually stable methyl-containing titanocene moieties that were stable as solids at room temperature, while exposed to air in CDCl3 solution for at least five days.

[4] = test system: Caki-1 cells; assay: Annexin V/PI apoptosis assay; assay type: cell-based, human; conditions: Caki-1, 6 hours incubation, 10 μM
Procedure: To gain insight concerning the type of cell death that is induced in cancer cell lines, apoptosis assays were performed with Caki-1 cells with compound 2 dissolved in 1% DMSO solution in media. A 1% solution in media (FIG. 7) and staurosporine (FIG. 8) were used as controls. In early stages of apoptosis, one of the significant biochemical features is loss of plasma membrane phospholipid asymmetry due to translocation of phosphatidylserine (PS) from cytoplasmic to extracellular side. This characteristic allows detection of externalized PS by the specific binding of Annexin V (FITC-conjugated). Initiation of cell death will eventually result in the permeabilization of the cell membrane, allowing Pi to stain DNA within the nucleus. […] After incubation during 6 hours with 10 μM of compound 2 necrosis can be clearly proposed.
Annexin V/PI assay: Confluent Caki-1 cells were treated with either […], 0.1% DMSO or 5 μM of staurosporine for 6 h. […] Stained cells were analyzed by flow cytometry using Accuri C6 software (BD Biosciences, San Jose, Calif., USA).

[5] = test system: p90-RSK; assay: Protein kinase expression in Caki-1 whole cell lysates, p90-RSK; assay type: cell-based, human; conditions: Caki-1, 5 μM, by 12 hours post-treatment
Procedure: as §1, §2, §3

[6] = test system: UO31; assay: Cell viability assay (XTT), UO31; assay type: cell-based, human; conditions: 72 h
Description: Cell Culture: Human renal cell carcinoma lines A498, Caki-1 and UO31, as well as the human prostate carcinoma cell lines DU145 and PC3 were newly obtained for these studies from the American Type Culture Collection (ATCC) (Manassas, Va., USA) and cultured in Roswell Park Memorial Institute (RPMI-1640) (Mediatech Inc., Manassas, Va.) media containing 10% fetal bovine serum (FBS, Life Technologies, Grand Island, N.Y.), 1% Minimum Essential Media (MEM) nonessential amino acids (NEAA, Mediatech) and 1% penicillin-streptomycin (PenStrep, Mediatech). HEK-293T cells were newly purchased from ATCC (Manassas, Va., USA) and maintained in Dulbecco's modified Eagle's medium (DMEM) (Mediatech) supplemented with 10% FBS, 1% NEAA and 1% PenStrep. […]
Cell Viability Assay: Cells were seeded at a concentration of 5000 cells/90 μl per well of either RPMI or DMEM without phenol red and without antibiotics, supplemented with 10% FBS and 2 mM L-glutamine into tissue culture grade 96-well flat bottom microplates (BioLite Microwell Plate, Fisher Scientific, Waltham, Mass., USA) and grown for 24 h at 37° C. in a humidified incubator. […] The optical absorbance of each well in a 96-well plate was quantified using BioTek ELx808 absorbance microplate reader (BioTek Winooski, Vt.) set at 450 nm wavelength. The percentage of surviving cells was calculated from the ratio of absorbance of treated to untreated cells.

[7] = Pharmacokinetics in blood/plasma (ICP-MS, gold content)
Procedure: Blood was collected by retro-orbital bleeding into heparinized blood collection vials on ice at time intervals of 30 minutes, 2 hours, 6 hours, 24 hours, and 48 hours after the first dose.
Gold and titanium content was determined using ICP-MS. […] The mixture was heated at 90° C. for 5 hours. After cooling, the samples were diluted with water, 40 ppb of Indium internal standard was added and analyzed in a Thermo Scientific XSERIES 2 ICP-MS with ESI PC3 Peltier cooled spray chamber with SC-FAST injection loop and SC-4 autosampler. All the elements were analyzed using He/H2 collision-reaction mode. Plasma from control mice was spiked with the test compounds to determine the extraction efficiency of gold and titanium.
Pharmacokinetic estimates were obtained from the plasma concentration-time profiles by non-compartmental analysis.

[8] = end of the study
Procedure: At the end of the study, liver, kidney and tumor of the animals were harvested, weighed and transferred into glass vials. One ml of water was added to each samples and subjected to ultrasonic tissue disruption at 15 W power for 1 minute. The tissue homogenates were frozen at −80° C. for two hours and lyophilized. The lyophilized product was heated at 90° C. with the concentrated acid mix (described above) for five hours, cooled, diluted with water and analyzed for titanium and gold by ICP-MS.

[9] = test system: Caki-1 cells; assay type: cell-based, human; conditions: Caki-1, 5 μM
Procedure: Anti-invasive properties were evaluated by using a wound-healing scratch assay.
Cell migration: For wound healing assays, Caki-1 cells were seeded in 6 cm dishes at a density of 0.8×10^6 in complete media, then grown to confluence for twenty-four hours at 37° C. (5% CO2), then cross-shape wounds/scratches were performed in the monolayer using a sterile 10 μl pipette tip. […] To quantify cell migration, the area of the initial wound (T0) is compared with the area of the healing wound at three time points after the scratch is introduced. Percent Migration=[area of original wound−area of wound during healing]/Area of original wound]×100.

Substance: [(η-C5H5)2TiMe(μ-mba)Au(PPh3)] [Compound 2]
- expression of AKT [1]: dramatic decreases in expression
- inhibition of thioredoxin reductase activity ([2]; Caki-1 cells, 5 μM, five hour incubation): 31.6%
- pIC50 ([2]; read-out: IC50 thioredoxin reductase in Caki-1 cells, after twelve hours): 6.06
- half-life in DMSO-d6 ([3]; DMSO-d6): eight
- half-life fold larger than corresponding compound 6 / compound 7 ([3]; DMSO-d6, same solvent): sixteen
- UV-vis spectra over time ([3]; micromolar concentration in 1:99 DMSO/PBS, 23 h, physiological pH): did not change over time
- type of cell death induced [4]: necrosis
- expression of p90-RSK [5]: dramatic decreases in expression
- IC50 UO31 [6]: nanomolar range
- blood concentration at the time of the second dose ([7]; 48 hours after the first dose, 3 mg/kg): 40400 ± 6000 ng/mL
- absorption into blood ([7]; blood levels up to twenty-four hours): slow absorption
- accumulation in liver and kidney [8]: accumulated in the liver and kidney to a more significant degree
- inhibition of migration [9]: complete inhibition of migration
